From patent US8252737B2, “Antimicrobial peptides and methods of use” (priority 2004, dated 2012)
≈ marks a conversion by molar mass, not a printed value. Where two headings read alike, the source gives them in different places. Square brackets hold non-standard residues; d marks the D form. Peptide text beside a SMILES is read from it.

Tests used:
human erythrocytes = assay: Hemolytic activity (MHC), Protocol A, 12 hours; settings: for minimal hemolytic concentration (MHC): incubation for 12 hours at 37° C. (Tables 7 and 8)
Method: Measurement of Hemolytic Activity—Protocol A: Peptide samples were added to 1% human erythrocytes in phosphate buffered saline (0.08M NaCl; 0.043M Na2PO4; 0.011M KH2PO4) and reactions were incubated at 37° C. for 12 hours in microtiter plates. Peptide samples were diluted 2 fold in order to determine the concentration that produced no hemolysis. […] Hemoglobin release was determined spectrophotometrically at 562 nm. The hemolytic titer was the highest 2-fold dilution of the peptide that still caused release of hemoglobin from erythrocytes. The control for no release of hemoglobin was a sample of 1% erythrocytes without any peptide added. […] Peptide samples were diluted 2 fold in order to determine the concentration that produced no hemolysis. […] Hemoglobin release was determined spectrophotometrically at 570 nm. The hemolytic titer was the highest 2-fold dilution of the peptide that still caused release of hemoglobin from erythrocytes. The control for no release of hemoglobin was a sample of 1% erythrocytes without any peptide added.

[1] = RP-HPLC temperature profiling (hydrophobicity and self-association/dimerization parameter PA); type: physicochemical; settings: for tR (min) 5° C.: RP-HPLC retention time at 5° C. during temperature profiling (measure of hydrophobicity); for tR (min) 80° C.: RP-HPLC retention time at 80° C. during temperature profiling; for decrease in hydrophobicity relative to NVL (V681): RP-HPLC retention time difference at 80° C.; for decrease in hydrophobicity relative to NVL (V681) / ΔtR (X-NVL) (min) 5° C. / ΔtR (X-NVL) (min) 80° C.: non-polar face substitutions; for tR (min) Max: maximal RP-HPLC retention time during temperature profiling 5-80° C.; for PA (min) association parameter: maximal retention time difference relative to control peptide C within 5-80° C.; for ΔtR (X-NVL) (min) 5° C.: retention time difference relative to native peptide V681 (NVL) at 5° C.; for ΔtR (X-NVL) (min) 80° C.: retention time difference relative to native peptide V681 (NVL) at 80° C.
How it was run: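 RP-HPLC retention times recorded over temperature profiling from 5°C to 80°C, with retention relative to native V681 at each limit used as hydrophobicity. Self-association parameter PA defined as the maximal change in retention time from 5°C, after subtracting that of monomeric random-coil control peptide C.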

gram-positive bacteria = test system: gram-positive bacteria
How it was run: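 Microtiter dilution in LB no-salt or Mueller-Hinton medium, with BHI for Pseudomonas aeruginosa clinical isolates (final inoculum 1×10^6 CFU/ml). Plates were incubated 24 hours at 37° C. MIC was the lowest peptide concentration inhibiting growth.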

[2] = minimal hemolytic concentration on human red blood cells (hRBC), Table 9

Compound	minimal hemolytic concentration (MHC) (human erythrocytes)	MHC (human erythrocytes; [2])	tR (min) 5° C. [1]	tR (min) 80° C. [1]	decrease in hydrophobicity relative to NVL (V681) [1]	tR (min) Max [1]	PA (min) association parameter [1]	ΔtR (X-NVL) (min) 5° C. ([1]; relative hydrophobicity)	ΔtR (X-NVL) (min) 80° C. ([1]; relative hydrophobicity)	MIC (μg/ml) Gram-positive (gram-positive bacteria)	MIC (μg/ml) Gram-positive (gram-positive bacteria; geometric mean MIC, Table 9)	MHC (human erythrocytes)	ΔtR (X-PSL) (min) 5° C. ([1]; polar face substitutions, retention time difference relative to native peptide V681 (PSL) at 5° C., relative hydrophobicity)	ΔtR (X-PSL) (min) 80° C. ([1]; polar face substitutions, retention time difference relative to native peptide V681 (PSL) at 80° C., relative hydrophobicity)
CC[C@H](C)[C@H](NC(=O)[C@H](C)NC(=O)[C@H](CCCCN)NC(=O)[C@H](CC(C)C)NC(=O)[C@H](C)NC(=O)[C@@H](NC(=O)[C@H](Cc1c[nH]cn1)NC(=O)[C@H](CC(C)C)NC(=O)[C@@H](NC(=O)[C@@H](NC(=O)[C@H](CCCCN)NC(=O)[C@H](C)NC(=O)[C@H](C)NC(=O)[C@H](CO)NC(=O)[C@H](CCCCN)NC(=O)[C@H](Cc1ccccc1)NC(=O)[C@@H](NC(=O)[C@H](CCCCN)NC(=O)[C@H](CC(C)C)NC(=O)[C@H](Cc1ccccc1)NC(=O)[C@H](CO)NC(=O)[C@H](CCCCN)NC(=O)[C@H](Cc1c[nH]c2ccccc12)NC(=O)[C@H](CCCCN)NC(C)=O)[C@@H](C)O)[C@@H](C)O)C(C)C)[C@@H](C)O)C(=O)N[C@@H](CO)C(=O)N[C@@H](CO)C(N)=O [NAL]	31.2 µg/mL	31.2 µg/mL	43.94 min	41.38 min	-4.45 min	44.88 min	2.59 min	-4.16 min	-4.45 min	4.5 µg/mL (≈ 1.53 µM)	–	–	–	–
CC[C@H](C)[C@H](NC(=O)[C@H](C)NC(=O)[C@H](CCCCN)NC(=O)[C@H](CC(C)C)NC(=O)[C@H](C)NC(=O)[C@@H](NC(=O)[C@H](Cc1c[nH]cn1)NC(=O)[C@H](CC(C)C)NC(=O)[C@@H](NC(=O)[C@@H](NC(=O)[C@H](CCCCN)NC(=O)[C@@H](CCCCN)NC(=O)[C@H](C)NC(=O)[C@H](CO)NC(=O)[C@H](CCCCN)NC(=O)[C@H](Cc1ccccc1)NC(=O)[C@@H](NC(=O)[C@H](CCCCN)NC(=O)[C@H](CC(C)C)NC(=O)[C@H](Cc1ccccc1)NC(=O)[C@H](CO)NC(=O)[C@H](CCCCN)NC(=O)[C@H](Cc1c[nH]c2ccccc12)NC(=O)[C@H](CCCCN)NC(C)=O)[C@@H](C)O)[C@@H](C)O)C(C)C)[C@@H](C)O)C(=O)N[C@@H](CO)C(=O)N[C@@H](CO)C(N)=O [NKD]	–	>250.0 µg/mL	34.05 min	30.96 min	–	34.05 min	1.10 min	-14.05 min	-14.87 min	–	18.7 µg/mL (≈ 6.25 µM)	–	–	–
CC[C@H](C)[C@H](NC(=O)[C@H](C)NC(=O)[C@H](CCCCN)NC(=O)[C@H](CC(C)C)NC(=O)[C@H](C)NC(=O)[C@@H](NC(=O)[C@H](Cc1c[nH]cn1)NC(=O)[C@H](CC(C)C)NC(=O)[C@@H](NC(=O)[C@@H](NC(=O)[C@H](CCCCN)NC(=O)[C@@H](NC(=O)[C@H](C)NC(=O)[C@@H](CCCCN)NC(=O)[C@H](CCCCN)NC(=O)[C@H](Cc1ccccc1)NC(=O)[C@@H](NC(=O)[C@H](CCCCN)NC(=O)[C@H](CC(C)C)NC(=O)[C@H](Cc1ccccc1)NC(=O)[C@H](CO)NC(=O)[C@H](CCCCN)NC(=O)[C@H](Cc1c[nH]c2ccccc12)NC(=O)[C@H](CCCCN)NC(C)=O)[C@@H](C)O)C(C)C)[C@@H](C)O)C(C)C)[C@@H](C)O)C(=O)N[C@@H](CO)C(=O)N[C@@H](CO)C(N)=O [PKD] (Ac-KWKSFLKTFK[dK]AVKTVLHTALKAISS-NH2)	–	–	42.20 min	39.29 min	–	42.87 min	2.23 min	–	–	2.8 µg/mL (≈ 0.932 µM)	–	31.2 µg/mL	-5.90 min	-6.54 min
Ac-KWKSFLKTFKSASKTVLHTALKAISS-NH2 [NSL]	125 µg/mL	125.0 µg/mL	40.72 min	37.62 min	-8.21 min	41.08 min	1.82 min	-7.38 min	-8.21 min	7.4 µg/mL	–	–	–	–
